# From patent US7968577B2 (Bristol-Myers Squibb Company, priority 2006, dated 2011)
# Biological target: T1, human glucocorticoid receptor (Homo sapiens, UniProt P04150)
# T1 construct: purified human recombinant full-length glucocorticoid receptor; purchased Invitrogen Part #2893
# T1 sequence (P04150 1-777): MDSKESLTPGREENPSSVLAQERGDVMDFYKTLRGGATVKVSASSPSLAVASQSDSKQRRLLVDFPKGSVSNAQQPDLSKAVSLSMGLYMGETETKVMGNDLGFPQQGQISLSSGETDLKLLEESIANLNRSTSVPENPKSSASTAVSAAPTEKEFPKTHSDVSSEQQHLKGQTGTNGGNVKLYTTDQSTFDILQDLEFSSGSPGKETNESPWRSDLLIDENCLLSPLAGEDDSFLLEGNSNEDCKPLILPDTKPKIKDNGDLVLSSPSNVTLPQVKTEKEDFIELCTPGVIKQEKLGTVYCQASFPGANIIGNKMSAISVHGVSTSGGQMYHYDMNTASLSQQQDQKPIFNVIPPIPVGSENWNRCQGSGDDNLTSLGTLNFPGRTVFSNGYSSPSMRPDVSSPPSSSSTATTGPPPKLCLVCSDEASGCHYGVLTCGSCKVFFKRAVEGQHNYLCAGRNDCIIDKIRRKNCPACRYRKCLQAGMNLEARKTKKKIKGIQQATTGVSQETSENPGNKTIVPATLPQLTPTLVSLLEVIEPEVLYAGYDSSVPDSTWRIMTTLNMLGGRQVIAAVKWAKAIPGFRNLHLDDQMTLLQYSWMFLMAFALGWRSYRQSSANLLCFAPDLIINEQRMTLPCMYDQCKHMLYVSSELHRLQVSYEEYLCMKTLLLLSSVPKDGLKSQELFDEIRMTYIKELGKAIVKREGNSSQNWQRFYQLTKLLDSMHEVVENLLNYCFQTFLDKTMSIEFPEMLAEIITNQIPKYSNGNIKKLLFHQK
# Assay: Glucocorticoid Receptor Binding Assay (I), fluorescence polarization competitor kit (Fluormone GS Red)
# Conditions: GR Binding Assay (I)
# Experimental: Glucocorticoid Receptor Binding Assay (I)^a
# In order to assess the affinity of test compounds for the human glucocorticoid receptor, a commercially available kit was used (Glucocorticoid Receptor Competitor Assay Kit, Invitrogen Part #2893). Briefly, purified human recombinant full-length glucocorticoid receptor (2 nM) was mixed with fluorescently labeled glucocorticoid (1 nM Fluormone GS Red) in the presence or absence of test compound. After two hour incubation at room temperature in the dark, the fluorescence polarization (FP) of the samples was measured. […] Test compounds were analyzed in the concentration range from 8.5 E-05 μM to 5 μM.
row,Ki,Compound
1,52.9 nM,"CC(C)(C)c1ccc(-c2ccc(C(c3ccccc3)C(C)(C)C(=O)Nc3nncs3)cc2)cc1 (stereo not shown) [Example 417, 3-(4′-tert-butyl-4-biphenylyl)-2,2-dimethyl-3-phenyl-N-1,3,4-thiadiazol-2-ylpropanamide]"
2,31 nM,"CC(C)CC(c1ccc(-c2ccc(C(=O)NC3CC3)cc2)cc1)C(C)(C)C(=O)Nc1nncs1 (stereo not shown) [Example 429, N-cyclopropyl-4′-(1-(1,1-dimethyl-2-oxo-2-(1,3,4-thiadiazol-2-ylamino)ethyl)-3-methylbutyl)-4-biphenylcarboxamide]"
3,6.43 nM,"CCCc1ccc(-c2ccc(C(c3ccccc3)C(C)(C)C(=O)Nc3nncs3)cc2)cc1 (stereo not shown) [Example 384, 2,2-dimethyl-3-phenyl-3-(4′-propyl-4-biphenylyl)-N-1,3,4-thiadiazol-2-ylpropanamide]"
4,26.5 nM,"CCCCc1ccc(-c2ccc(C(c3ccccc3)C(C)(C)C(=O)Nc3nncs3)cc2)cc1 (stereo not shown) [Example 418, 3-(4′-butyl-4-biphenylyl)-2,2-dimethyl-3-phenyl-N-1,3,4-thiadiazol-2-ylpropanamide]"
5,5.68 nM,"CC(C)(C(=O)Nc1nccs1)C(c1ccccc1)c1ccc(Oc2ccccc2)cc1 (stereo not shown) [Example 321, 2,2-dimethyl-3-phenyl-3-(4-(phenyloxy)phenyl)-N-1,3-thiazol-2-ylpropanamide]"
6,3.68 nM,"CC(C)CC(c1ccc(-c2ccc(C(=O)N(C)C)cc2)cc1)C(C)(C)C(=O)Nc1nncs1 (stereo not shown) [Example 393, 4′-(1-(1,1-dimethyl-2-oxo-2-(1,3,4-thiadiazol-2-ylamino)ethyl)-3-methylbutyl)-N,N-dimethyl-4-biphenylcarboxamide]"
7,386 nM,"CC(C)(C(=O)Nc1nccs1)C(c1ccccc1)c1ccc(Cc2ccccc2)cc1 (stereo not shown) [Example 319, 2,2-dimethyl-3-phenyl-3-(4-(phenylmethyl)phenyl)-N-1,3-thiazol-2-ylpropanamide]"
8,105 nM,"CC(C)CC(c1ccc(-c2ccc(O)cc2)cc1)C(C)(C)C(=O)Nc1nncs1 (stereo not shown) [Example 436, 3-(4′-hydroxy-4-biphenylyl)-2,2,5-trimethyl-N-1,3,4-thiadiazol-2-ylhexanamide]"
9,12.1 nM,"CC(C)Cc1ccc(-c2ccc(C(CC(C)C)C(C)(C)C(=O)Nc3nncs3)cc2)cc1 (stereo not shown) [Example 397, 2,2,5-trimethyl-3-(4′-(2-methylpropyl)-4-biphenylyl)-N-1,3,4-thiadiazol-2-ylhexanamide]"

# Biological target: T2, human full-length glucocorticoid receptor (Homo sapiens, UniProt P04150)
# T2 construct: recombinantly expressed human full-length glucocorticoid receptor; purchased PanVera Co., Madison, Wis; P2816
# T2 sequence (P04150 1-777): T1 sequence (P04150 1-777)
# Assay: Glucocorticoid Receptor Binding Assay (II), fluorescence polarization competitor kit (Fluormone GS1)
# Conditions: GR Binding Assay (II)
# Experimental: Glucocorticoid Receptor Binding Assay (II)^b
# In order to measure the binding of compounds on the glucocorticoid receptor a commercially available kit was used (Glucocorticoid receptor competitor assay kit, PanVera Co., Madison, Wis., P2816). Briefly, a cell lysate containing recombinantly expressed human full-length glucocorticoid receptor was mixed with a fluorescently labeled glucocorticoid (1 nM Fluormone GS1) in the presence or absence of test compound. After one hour at room temperature, the fluorescence polarization (FP) of the samples were measured.
row,Compound,Ki
1,"CC(C)(C(=O)NC1CCC1)[C@@H](c1ccccc1)c1ccc(O)cc1 [Example 333, (3S)-N-cyclobutyl-3-(4-hydroxyphenyl)-2,2-dimethyl-3-phenylpropanamide]",392 nM
2,"CC(C)(C(=O)Nc1nncs1)C(c1ccccc1)c1ccc(Br)cc1 (stereo not shown) [Example 318, 3-(4-bromophenyl)-2,2-dimethyl-3-phenyl-N-1,3,4-thiadiazol-2-ylpropanamide]",12.8 nM
3,"COc1ccc([C@@H](c2ccccc2)C(C)(C)C(=O)NC2CCC2)cc1 [Example 272, (3R)-N-cyclobutyl-2,2-dimethyl-3-(4-(methyloxy)phenyl)-3-phenylpropanamide]",1160 nM
4,"Cc1ccc(CNc2ccc(C(c3ccccc3)C(C)(C)C(=O)Nc3nncs3)cc2)cc1 (stereo not shown) [Example 240, 2,2-dimethyl-3-(4-(((4-methylphenyl)methyl)amino)phenyl)-3-phenyl-N-1,3,4-thiadiazol-2-ylpropanamide]",18.6 nM
5,"CC(C)(C)OC(=O)N1CCN(c2ccc(C(c3ccccc3)C(C)(C)C(=O)Nc3nccs3)cc2)CC1 (stereo not shown) [Example 239, 2,2-dimethylethyl 4-(4-(2,2-dimethyl-3-oxo-1-phenyl-3-(1,3-thiazol-2-ylamino)propyl)phenyl)-1-piperazinecarboxylate]",324 nM
6,"CC(C)(C(=O)NC1CCCC1)[C@H](c1ccccc1)c1ccc(O)cc1 [Example 336, (3R)-N-cyclopentyl-3-(4-hydroxyphenyl)-2,2-dimethyl-3-phenylpropanamide]",504 nM
7,"CC(C)(C(=O)Nc1nncs1)C(c1ccccc1)c1ccc(N2CCNCC2)cc1 (stereo not shown) [Example 251, 2,2-dimethyl-3-phenyl-3-(4-(1-piperazinyl)phenyl)-N-1,3,4-thiadiazol-2-ylpropanamide]",636 nM
8,"CC(C)(C(=O)N1CCOCC1)[C@@H](c1ccccc1)c1ccc(O)cc1 [Example 337, 4-((1S)-2,2-dimethyl-3-(4-morpholinyl)-3-oxo-1-phenylpropyl)phenol]",2090 nM
9,"CC(C)(C(=O)NC1CCC1)[C@H](c1ccccc1)c1ccc(O)cc1 [Example 334, (3R)-N-cyclobutyl-3-(4-hydroxyphenyl)-2,2-dimethyl-3-phenylpropanamide]",395 nM
10,CC(O)c1ccc(C(c2ccccc2)C(C)(C)C(=O)Nc2nncs2)cc1 (stereo not shown) [Example 372],96.1 nM
11,"COc1ccc([C@H](c2ccccc2)C(C)(C)C(=O)NC2CC2)cc1 [Example 269, (3S)-N-cyclopropyl-2,2-dimethyl-3-(4-(methyloxy)phenyl)-3-phenylpropanamide]",1300 nM
12,"COc1ccc(C(c2ccccc2)C(C)(C)C(=O)Nc2nncs2)cc1F (stereo not shown) [Example 285, 3-(3-fluoro-4-(methyloxy)phenyl)-2,2-dimethyl-3-phenyl-N-1,3,4-thiadiazol-2-ylpropanamide]",13.8 nM
13,"CC(C)(C(=O)Nc1nncs1)[C@@H](c1ccccc1)c1ccc(N2CCOCC2)cc1 (stereo in doubt) [Example 259, 2,2-dimethyl-3-(4-(4-morpholinyl)phenyl)-3-phenyl-N-1,3,4-thiadiazol-2-ylpropanamide]",190 nM
14,"CC(C)(C(=O)Nc1nccs1)C(c1ccc(Cl)cc1)c1ccc(N2CCOCC2)cc1 (stereo not shown) [Example 232, 3-(4-chlorophenyl)-2,2-dimethyl-3-(4-(4-morpholinyl)phenyl)-N-1,3-thiazol-2-ylpropanamide]",14.5 nM

# The next lines start with the values.
row,Ki,Compound
1,22.9 nM,CC(C)(C(=O)Nc1nccs1)[C@H](c1ccccc1)c1ccc(O)c(C#N)c1 [Example 358]
2,8.1 nM,"CC(C)(C(=O)Nc1ncns1)[C@@H](c1ccccc1)c1ccc(O)cc1 [Example 342, (3S)-3-(4-hydroxyphenyl)-2,2-dimethyl-3-phenyl-N-1,2,4-thiadiazol-5-ylpropanamide]"
3,60.9 nM,"CC(=O)c1cccc(C(c2ccccc2)C(C)(C)C(=O)Nc2nccs2)c1 (stereo not shown) [Example 370, 3-(3-acetylphenyl)-2,2-dimethyl-3-phenyl-N-1,3-thiazol-2-ylpropanamide]"
4,74.7 nM,"COc1ccc(C(c2ccccc2)C(C)(C)C(=O)Nc2nccs2)c(F)c1 (stereo not shown) [Example 279, 3-(2-fluoro-4-(methyloxy)phenyl)-2,2-dimethyl-3-phenyl-N-1,3-thiazol-2-ylpropanamide]"
5,18.8 nM,"Cc1cnc(NC(=O)C(C)(C)[C@@H](c2ccccc2)c2ccc(O)cc2)s1 [Example 331, (3S)-3-(4-hydroxyphenyl)-2,2-dimethyl-N-(5-methyl-1,3-thiazol-2-yl)-3-phenylpropanamide]"
6,71.4 nM,"CC(C)(C(=O)Nc1nccs1)[C@@H](c1ccccc1)c1ccc(N2CCOCC2)cc1 (stereo in doubt) [Example 257, 2,2-dimethyl-3-(4-(4-morpholinyl)phenyl)-3-phenyl-N-1,3-thiazol-2-ylpropanamide]"
7,23.2 nM,"CC(C)(C(=O)Nc1nccs1)C(c1ccccc1)c1ccc(Br)cc1 (stereo not shown) [Example 317, 3-(4-bromophenyl)-2,2-dimethyl-3-phenyl-N-1,3-thiazol-2-ylpropanamide]"
8,9.2 nM,"COc1ccc(C(c2ccccc2)C(C)(C)C(=O)Nc2nccs2)cc1F (stereo not shown) [Example 283, 3-(3-fluoro-4-(methyloxy)phenyl)-2,2-dimethyl-3-phenyl-N-1,3-thiazol-2-ylpropanamide]"
9,35 nM,"CC(C)(C(=O)Nc1nccs1)C(c1ccccc1)c1ccc(F)cc1 (stereo not shown) [Example 308, 3-(4-fluorophenyl)-2,2-dimethyl-3-phenyl-N-1,3-thiazol-2-ylpropanamide]"
10,413 nM,"CC(=O)Nc1ccc(C(c2ccccc2)C(C)(C)C(=O)Nc2nccs2)cc1 (stereo not shown) [Example 247, 3-(4-(acetylamino)phenyl)-2,2-dimethyl-3-phenyl-N-1,3-thiazol-2-ylpropanamide]"
11,16.8 nM,"Cc1csc(NC(=O)C(C)(C)[C@@H](c2ccccc2)c2ccc(O)cc2)n1 [Example 329, (3S)-3-(4-hydroxyphenyl)-2,2-dimethyl-N-(4-methyl-1,3-thiazol-2-yl)-3-phenylpropanamide]"
